Experimental data reported in patent publication US20030134292A1, “Thermostable DNA polymerases and methods of making same” (priority 2001, published 2003).

B1: Taq Δ271, F667Y, E681W: Taq Δ271 F667Y E681W DNA Polymerase, SEQ ID NO: 12, recombinant thermostable DNA polymerase (protein, listed as Thermus aquaticus)
chain: MLERLEFGSLLHEFGLLESPKALEEAPWPPPEGAFVGFVLSRKEPMWADLLALAAARGGRVHRAPEPYKALRDLKEARGLLAKDLSVLALREGLGLPPGDDPMLLAYLLDPSNTTPEGVARRYGGEWTEEAGERAALSERLFANLWGRLEGEERLLWLYREVERPLSAVLAHMEATGVRLDVAYLRALSLEVAEEIARLEAEVFRLAGHPFNLNSRDQLERVLFDELGLPAIGKTEKTGKRSTSAAVLEALREAHPIVEKILQYRELTKLKSTYIDPLPDLIHPRTGRLHTRFNQTATATGRLSSSDPNLQNIPVRTPLGQRIRRAFIAEEGWLLVALDYSQIELRVLAHLSGDENLIRVFQEGRDIHTETASWMFGVPREAVDPLMRRAAKTINYGVLYGMSAHRLSQWLAIPYEEAQAFIERYFQSFPKVRAWIEKTLEEGRRRGYVETLFGRRRYVPDLEARVKSVREAAERMAFNMPVQGTAADLMKLAMVKLFPRLEEMGARML
B2: Taq Δ271, F667Y: Taq Δ271 F667Y DNA Polymerase (Thermo Sequenase), SEQ ID NO: 10, recombinant thermostable DNA polymerase (protein, listed as Thermus aquaticus)
chain: MLERLEFGSLLHEFGLLESPKALEEAPWPPPEGAFVGFVLSRKEPMWADLLALAAARGGRVHRAPEPYKALRDLKEARGLLAKDLSVLALREGLGLPPGDDPMLLAYLLDPSNTTPEGVARRYGGEWTEEAGERAALSERLFANLWGRLEGEERLLWLYREVERPLSAVLAHMEATGVRLDVAYLRALSLEVAEEIARLEAEVFRLAGHPFNLNSRDQLERVLFDELGLPAIGKTEKTGKRSTSAAVLEALREAHPIVEKILQYRELTKLKSTYIDPLPDLIHPRTGRLHTRFNQTATATGRLSSSDPNLQNIPVRTPLGQRIRRAFIAEEGWLLVALDYSQIELRVLAHLSGDENLIRVFQEGRDIHTETASWMFGVPREAVDPLMRRAAKTINYGVLYGMSAHRLSQELAIPYEEAQAFIERYFQSFPKVRAWIEKTLEEGRRRGYVETLFGRRRYVPDLEARVKSVREAAERMAFNMPVQGTAADLMKLAMVKLFPRLEEMGARMLLQVHDELVLEAPKERAEAVARLAKEVMEGVYPLAVPLEVEVGIGEDWLSAKE

Experiments:
Type in all cases: biochemical
[1] = molecular target: T1, Taq Δ271 F667Y (polymerase A) (Thermus aquaticus, UniProt P19821, F272M/F667Y); assay: DNA polymerase activity assay with detergent or additive, Taq Δ271 F667Y purified without detergent
T1 construct: made in house; host or cells: E. coli
Protocol: (§1) DNA polymerase activity was measured by running reactions of 50 μL containing 25 mM TAPS (tris-hydroxymethyl-methylaminopropane sulfonic acid) buffer, pH 9.3 (measured at 25° C.), 50 mM KCl, 2 mM MgCl2, 1 mM 2-mercaptoethanol, 0.2 mM each of dGTP, dCTP, dTTP, 0.2 mM [α-^33P]-dATP (0.05-0.1 Ci/mmol) and 0.4 mg/mL activated salmon sperm DNA. The reaction mixture (45 μL) was pre-heated to 74° C. and diluted polymerase (5 μL) added with thorough mixing. After 10 minutes of further incubation at 74° C., the reaction was stopped by the addition of 10 μL of 60 mM EDTA and the entire mixture placed at 0° C. Acid-precipitable radioactivity was determined on an aliquot ([…]) by diluting with 1 ml of 2 mM EDTA containing 0.05 mg/ml salmon sperm DNA and adding 1 mL of 20% (w/v) trichloroacetic acid, 2% (w/v) sodium pyrophosphate (Na4P2O7 10H2O) and incubating on ice for at least 15 minutes. Precipitated DNA was collected by filtering through 2.4 cm GFC filter disks (Schleichter and Schuell) and washed 7 times with 5ml of with 1 N HCl, 0.1 M sodium pyrophosphate. The filter was placed in 3 ml of aqueous scintillation counting fluid and ^33P-specific radioactivity determined by scintillation counting.
(§2) For the assays presented in Tables 5 and 6, the polymerase was diluted 10-5000 fold in a buffer containing 25 mM Tris-HCl pH 8.0, 50 mM KCl, 1 mM 2-mercaptoethanol, and the indicated concentration of detergent or other additive. Where possible, only reactions which incorporated 20- 100 pmol of dAMP in 10 minutes were used for calculation of activity.

[2] = molecular target: T2, Taq Δ271 F667Y E681W (polymerase B) (Thermus aquaticus, UniProt P19821, E681W/F272M/F667Y); assay: DNA polymerase activity assay with detergent or additive, Taq Δ271 F667Y E681W purified without detergent
T2 construct: made in house; host or cells: E. coli
T2 sequence (P19821 272-832 F272M/F667Y/E681W): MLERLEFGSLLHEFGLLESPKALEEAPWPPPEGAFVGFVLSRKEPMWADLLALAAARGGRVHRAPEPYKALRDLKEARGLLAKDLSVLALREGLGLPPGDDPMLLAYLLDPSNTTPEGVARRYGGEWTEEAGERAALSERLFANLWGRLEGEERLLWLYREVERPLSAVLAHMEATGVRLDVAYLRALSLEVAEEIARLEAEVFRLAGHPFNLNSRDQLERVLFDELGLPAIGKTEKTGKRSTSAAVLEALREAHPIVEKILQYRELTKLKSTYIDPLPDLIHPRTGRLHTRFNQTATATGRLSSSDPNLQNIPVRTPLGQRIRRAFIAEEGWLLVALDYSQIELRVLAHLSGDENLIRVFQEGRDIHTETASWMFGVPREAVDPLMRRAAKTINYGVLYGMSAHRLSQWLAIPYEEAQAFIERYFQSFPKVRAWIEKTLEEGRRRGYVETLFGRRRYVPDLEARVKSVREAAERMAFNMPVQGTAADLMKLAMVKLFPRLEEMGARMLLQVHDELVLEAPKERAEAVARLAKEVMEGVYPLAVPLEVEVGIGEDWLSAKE
Protocol: as §1, §2

[3] = molecular target: T3, Tth Δ273 F668Y (polymerase C) (Thermus thermophilus, UniProt P52028, F274M/F669Y); assay: DNA polymerase activity assay with detergent or additive, Tth Δ273 F668Y purified without detergent
T3 construct: made in house; host or cells: E. coli
T3 sequence (P52028 274-834 F274M/F669Y): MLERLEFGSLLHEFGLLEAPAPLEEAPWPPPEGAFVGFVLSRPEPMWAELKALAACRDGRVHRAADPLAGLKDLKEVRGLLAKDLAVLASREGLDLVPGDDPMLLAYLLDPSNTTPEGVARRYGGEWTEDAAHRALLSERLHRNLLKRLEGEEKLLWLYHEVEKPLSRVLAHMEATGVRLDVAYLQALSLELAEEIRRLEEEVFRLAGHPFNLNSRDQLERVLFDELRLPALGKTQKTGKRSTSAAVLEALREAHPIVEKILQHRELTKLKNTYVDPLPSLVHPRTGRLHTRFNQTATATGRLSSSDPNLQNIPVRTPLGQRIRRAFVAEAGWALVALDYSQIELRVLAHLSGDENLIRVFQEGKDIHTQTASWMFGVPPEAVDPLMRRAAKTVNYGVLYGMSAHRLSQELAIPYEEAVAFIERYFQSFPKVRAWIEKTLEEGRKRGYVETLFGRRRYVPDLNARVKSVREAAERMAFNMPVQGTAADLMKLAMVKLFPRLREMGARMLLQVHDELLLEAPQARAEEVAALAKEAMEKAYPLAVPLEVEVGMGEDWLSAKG
Protocol: as §1, §2

[4] = system: activated salmon sperm DNA; assay: Specific DNA polymerase activity of enzymes purified and assayed with or without Tween 20 and NP-40
Protocol: In one embodiment of the present invention, Taq Δ271 F667Y, and Taq Δ271 F667Y E681W were purified with or without detergents NP-40 & Tween-20. The butyl Sepharose chromatography elution profile for polymerase extracted without detergents was essentially identical to the profile for polymerase extracted with Tween 20 and NP-40.
as §1

[5] = additive final concentration 0.01% (w/v)
[6] = additive final concentration 0.1% (w/v)
[7] = additive final concentration 0.05% (w/v)
[8] = additive final concentration 0.2% (w/v)
[9] = detergent in purification: 0.1% Tween 20, 0.1% NP-40, detergent in assay: 0.1% Tween 20, 0.1% NP-40 (reference, 100%)
[10] = detergent in purification: 0.1% Tween 20, 0.1% NP-40, detergent in assay: None
[11] = detergent in purification: None, detergent in assay: 0.1% Tween 20, 0.1% NP-40
[12] = detergent in purification: None, detergent in assay: None, 100% = polymerase purified and assayed using Tween 20 and NP-40

Molecule | Taq Δ271 F667Y activity relative to 0.5% each NP-40 and Tween 20 [1, 5] | Taq Δ271 F667Y activity relative to 0.5% each NP-40 and Tween 20 [1, 6] | Taq Δ271 F667Y E681W activity relative to 0.5% each NP-40 and Tween 20 [2, 5] | Taq Δ271 F667Y E681W activity relative to 0.5% each NP-40 and Tween 20 [2, 6] | Tth Δ273 F668Y activity relative to 0.5% each NP-40 and Tween 20 [3, 5] | Tth Δ273 F668Y activity relative to 0.5% each NP-40 and Tween 20 [3, 6] | Taq Δ271 F667Y activity relative to 0.5% each NP-40 and Tween 20 [1, 7] | Taq Δ271 F667Y E681W activity relative to 0.5% each NP-40 and Tween 20 [2, 7] | Tth Δ273 F668Y activity relative to 0.5% each NP-40 and Tween 20 [3, 7] | also measured
CCCCCCCCO[C@@H]1O[C@H](CO)[C@@H](O)[C@H](O)[C@H]1O [Octyl Glucopyranoside, n-octyl-β-D-glucopyranoside] | − − − (Activity < 20%) | − − (Activity 20-50%) | − − − (Activity < 20%) | + + + (Activity > 80% (relative to activity using 0.5% each NP-40 and Tween 20)) | − − − (Activity < 20%) | + + + (Activity > 80% (relative to activity using 0.5% each NP-40 and Tween 20)) |  |  |  | Polymerase B Activity (%) ([2]; detergent 0.1% (w/v)): 1%; Polymerase C Activity (%) ([3]; detergent 0.1% (w/v)): 79.7%
C[C@H](CCC(=O)[O-])[C@H]1CC[C@H]2[C@@H]3[C@H](O)C[C@@H]4C[C@H](O)CC[C@]4(C)[C@H]3C[C@H](O)[C@]12C.[Na+] [Sodium Cholate] | − − − (Activity < 20%) | − − − (Activity < 20%) | − − − (Activity < 20%) | − − − (Activity < 20%) | − − − (Activity < 20%) | − − − (Activity < 20%) | − − − (Activity < 20%) | − − − (Activity < 20%) | − − − (Activity < 20%) | 
CCCCCCCC[N+](C)(C)CCCS(=O)(=O)[O-] [Zwittergent 3-08] |  | − − (Activity 20-50%) |  | − − (Activity 20-50%) |  | − (Activity 50-60%) | − − − (Activity < 20%) | − − − (Activity < 20%) | − − (Activity 20-50%) | Taq Δ271 F667Y activity relative to 0.5% each NP-40 and Tween 20 [1, 8]: − − (Activity 20-50%); Taq Δ271 F667Y E681W activity relative to 0.5% each NP-40 and Tween 20 [2, 8]: − − (Activity 20-50%); Tth Δ273 F668Y activity relative to 0.5% each NP-40 and Tween 20 [3, 8]: + (Activity 60-70%)
CCCCCCCCCC[N+](C)(C)CCCS(=O)(=O)[O-] [Zwittergent 3-10] |  | − − (Activity 20-50%) |  | − − (Activity 20-50%) |  | + (Activity 60-70%) | − − (Activity 20-50%) | − − − (Activity < 20%) | − − (Activity 20-50%) | Taq Δ271 F667Y activity relative to 0.5% each NP-40 and Tween 20 [1, 8]: − (Activity 50-60%); Taq Δ271 F667Y E681W activity relative to 0.5% each NP-40 and Tween 20 [2, 8]: − − (Activity 20-50%); Tth Δ273 F668Y activity relative to 0.5% each NP-40 and Tween 20 [3, 8]: + (Activity 60-70%)
CCCCCCCCCCCCO[C@@H]1O[C@H](CO)[C@@H](O[C@H]2O[C@H](CO)[C@@H](O)[C@H](O)[C@H]2O)[C@H](O)[C@H]1O [n-Dodecyl-β-D-Maltoside, n-dodecyl-β-D-maltoside] | + ++ |  | + + + (Activity > 80% (relative to activity using 0.5% each NP-40 and Tween 20)) | + (Activity 60-70%) | + + + (Activity > 80% (relative to activity using 0.5% each NP-40 and Tween 20)) |  |  |  |  | Polymerase A Activity (%) ([1]; detergent 0.01% (w/v)): 98.8%; Taq Δ271 F667Y E681W activity relative to 0.5% each NP-40 and Tween 20 ([2]; additive final concentration 0.001% (w/v) in assay reaction mixture): + (Activity 60-70%); Taq Δ271 F667Y E681W activity relative to 0.5% each NP-40 and Tween 20 ([2]; additive final concentration 0.02% (w/v)): + (Activity 60-70%); Polymerase B Activity (%) ([2]; detergent 0.01% (w/v)): 92.3%; Polymerase C Activity (%) ([3]; detergent 0.01% (w/v)): 80.8%
Sodium Deoxycholate | − − − (Activity < 20%) | − − − (Activity < 20%) | − − − (Activity < 20%) | − − − (Activity < 20%) | − − − (Activity < 20%) | − − − (Activity < 20%) | − − − (Activity < 20%) | − − − (Activity < 20%) | − − − (Activity < 20%) | 
B1 |  |  |  |  |  |  |  |  |  | Assay (%*) specific activity [4, 9]: 100%; Assay (%*) specific activity [4, 10]: 2%; Assay (%*) specific activity [4, 11]: 157%; Assay (%*) specific activity [4, 12]: 6%
B2 |  |  |  |  |  |  |  |  |  | Assay (%*) specific activity [4, 9]: 100%; Assay (%*) specific activity [4, 10]: 3%; Assay (%*) specific activity [4, 11]: 102%; Assay (%*) specific activity [4, 12]: 5%
